Laboratory results reported in PMC4869175, “Evidence that phytochrome functions as a protein kinase in plant light signalling” (Nature Communications, 2016).

Molecular target: T1, FL-AsphyA (Avena sativa, UniProt P06593)
T1 construct: Full-length phytochrome genes of AsPHYA; made in house; host or cells: Pichia pastoris GS115
T1 sequence (P06593 1-1129): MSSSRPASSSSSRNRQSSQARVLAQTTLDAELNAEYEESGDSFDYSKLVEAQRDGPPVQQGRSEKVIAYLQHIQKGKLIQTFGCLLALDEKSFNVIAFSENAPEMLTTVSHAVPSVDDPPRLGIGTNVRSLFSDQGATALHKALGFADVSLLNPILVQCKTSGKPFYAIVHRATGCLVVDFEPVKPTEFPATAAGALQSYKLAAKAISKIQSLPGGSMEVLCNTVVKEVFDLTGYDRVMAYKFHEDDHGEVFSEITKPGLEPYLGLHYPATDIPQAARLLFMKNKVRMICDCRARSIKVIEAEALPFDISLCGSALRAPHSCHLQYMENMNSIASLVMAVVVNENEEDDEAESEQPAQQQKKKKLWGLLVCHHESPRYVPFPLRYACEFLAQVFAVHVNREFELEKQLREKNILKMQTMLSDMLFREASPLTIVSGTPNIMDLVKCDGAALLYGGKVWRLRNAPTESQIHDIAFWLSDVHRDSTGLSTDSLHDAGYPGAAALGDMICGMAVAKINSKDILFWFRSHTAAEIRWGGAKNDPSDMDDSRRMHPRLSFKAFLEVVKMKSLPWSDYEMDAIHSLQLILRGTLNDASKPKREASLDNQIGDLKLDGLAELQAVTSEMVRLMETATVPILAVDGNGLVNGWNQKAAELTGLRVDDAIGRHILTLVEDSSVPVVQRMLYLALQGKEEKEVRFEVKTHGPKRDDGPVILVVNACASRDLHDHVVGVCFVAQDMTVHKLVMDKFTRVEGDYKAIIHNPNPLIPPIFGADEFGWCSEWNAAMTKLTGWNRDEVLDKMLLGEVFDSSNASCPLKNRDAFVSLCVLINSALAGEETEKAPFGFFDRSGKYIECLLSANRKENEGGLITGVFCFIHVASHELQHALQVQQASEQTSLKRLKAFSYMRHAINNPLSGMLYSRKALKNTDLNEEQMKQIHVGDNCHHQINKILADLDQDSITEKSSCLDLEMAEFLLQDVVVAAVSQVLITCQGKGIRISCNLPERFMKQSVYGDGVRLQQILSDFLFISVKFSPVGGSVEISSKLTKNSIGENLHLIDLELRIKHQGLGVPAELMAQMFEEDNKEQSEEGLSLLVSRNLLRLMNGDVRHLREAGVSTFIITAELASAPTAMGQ
Assay: Autophosphorylation and kinase activity assays of 8-azido-ATP-labelled AsphyA
Assay type: biochemical
Conditions: Pfr form of FL-AsphyA, 8-azido-ATP labeling buffer
Procedure: For autophosphorylation assays, reaction mixtures (20 μl) contained kinase buffer (25 mM Tris-HCl, pH 7.8, 0.2 mM EDTA, 4 mM DTT and 5 mM MgCl2) and purified recombinant phytochromes (0.5–1.0 μg) in either Pr or Pfr forms. Phytochrome samples were irradiated with red or far-red light for 15 min before the start of the reaction. Because histone H1 is known to stimulate phytochrome autophosphorylation activity, the same amount of histone H1 (0.5–1.0 μg) was added to the phytochrome samples in the indicated experiments. The conditions for kinase assays were similar to those of phytochrome autophosphorylation experiments, except for addition of a substrate (0.5–1.0 μg). Reactions were started by adding 150 μM ATP containing 10 μCi of (γ-^32P) ATP and incubated at 30 °C for 1 h. […] To verify the proteins loaded, Coomassie blue protein staining and zinc-fluorescence assay were performed before drying. For quantification of the phosphorylation, dried gels were exposed to Fuji imaging plates, and the relative signals of phyA autophosphorylation and PIF3 phosphorylation by phyA were quantitated with a Typhoon FLA 7000 phosphor-imager (GE Healthcare).
Supplementary Figure 11. […] 8-azido-ATP labeled proteins were then detected using avidin-HRP. […] The band intensities were quantified using ImageJ software, and the percentages of 8-azido-ATP labeling were normalized to the 66-610 protein signals. […]

8-N3-ATP-biotin-long chain-hydrazone [8-azido-ATP]
autophosphorylation of 8-azido-ATP-labelled AsphyA: little autophosphorylation
kinase activity (PIF3) of 8-azido-ATP-labelled AsphyA: significantly reduced kinase activity
